In brackets after ≈: the same amount, converted by molar mass.

Settings in one data set: not given
`CCOC(=O)CC(CO)C(CC)c1cncn1C` (stereo not given) registered a logP of 0.73.
On the same count and under the same terms, the same measure for `CC(C)(C)C(=O)OCOc1ccccc1C(N)=O`: 2.
The same measure, in the same setting: the same measure for `CC(C)(C)C(=O)OCOc1ccccc1C(=O)NCN1CCOCC1`: 1.81; for `CCC(C(=O)OCCc1ccccc1)C(COC(=O)c1ccccc1)Cc1cncn1C` (stereo not given): 4.6.
The same measure, in the same setting: the same measure for `O=C(NCN1CCOCC1)c1ccccc1O`: 1.27; for `CCCC(=O)OCOc1ccccc1C(N)=O`: 1.66.
For `CC(=O)OCOc1ccccc1C(N)=O`, the logP came out at 0.52.
The same measure, in the same setting: the same measure for `CCCC(=O)OCOc1ccccc1C(=O)NCN1CCOCC1`: 1.34.
With `CC(=O)OCOc1ccccc1C(=O)NCN1CCOCC1`, the logP worked out at 0.27.

Staying with this data set, now noted: 23 °C.
`CC(C)(C)C(=O)OCOc1ccccc1C(N)=O`: the solubility worked out at 2430 µM (≈ 610 µg/mL).

As a reminder, the logP is a log measure of how a compound divides between an organic and an aqueous phase. The low end stands for a more hydrophilic compound, the high end for a more lipophilic compound. The solubility is the concentration that dissolves in the medium under given conditions. The low end stands for little dissolved substance, the high end for much dissolved substance.
